Assay results: patent publication US20230081357A1, “TOPICAL COMPOSITION COMPRISING CANNABIDIOL” (CURALEAF INTERNATIONAL LIMITED, priority 2020, published 2023)

How the values were obtained:
IL-1α [1] = experiment: Particulate (PM2.5) resistance test, IL-1α release by ELISA; format: cell-based, human; settings: sample alone, 24 h at 37° C.; 30 μl CBD-S5, 30 μl SDS 5% or 20 μg PM2.5; untreated RHE (NC) = 100%
Method: After incubation at 37° C. for 24 h in a controlled atmosphere of 5% CO2, the cell viability of the RHE sample was assessed by MTT assay, as described in Example 5A, while the culture medium was collected and analyzed for IL-1α release by ELISA assay, using an EMIL1ALPHA kit (Invitrogen-Thermo Scientific) with the following procedure.
100 μl of medium from each treatment was transferred to wells coated with anti-human IL-1α and incubated for 2 hours at room temperature. At the end of the incubation, the medium was removed and the wells were washed 4 times with 1× Wash Buffer. 100 μl of biotinylated antibody was added to each well and incubated for 1 hour at room temperature. At the end, the wells were washed 4 times with 1× Wash Buffer, treated with 100 μl of Streptavidin-HRP solution for 45 minutes at room temperature and finally washed 4 times with 1× Wash Buffer. 100 μl of TMB substrate was added to each well and incubated for 10 minutes in the dark. Finally, 100 μl of stop solution was added to each well and spectrophotometric readings were taken at wavelengths of 450 nm and 550 nm using the μQUANT BIO TEK Microplate Spectrophotometer instrument.
Changes in IL-1α levels released from the RHE tissue after each treatment were expressed as % values compared to the untreated RHE (NC) used as control (100%).

[2] = test system: reconstituted human epidermis (RHE); experiment: In vitro irritation test on reconstituted human epidermis, MTT cell viability; format: cell-based; settings: 60 minutes treatment, 24 hours incubation, % of negative control, 25 μg CBD-S5 or 30 μL 5% SDS
Method: The in vitro test consists of a topical exposure of the test substance on reconstituted human epidermis (RHE) followed by a cell viability test.
Cell viability is determined by the conversion of MTT (3-(4,5-dimethylthiazol-2-yl)-2,5-diphenyltetrazolium bromide) to a formazan blue salt, which is quantitatively measured after extraction from tissue. Conversion occurs via the mitochondrial enzyme succinate dehydrogenase, which is only active in living cells, causing the MTT tetrazole ring to open and formazan to form. Assessment of the viability of tissues exposed to the test substance compared to the negative control (treated with Dulbecco's phosphate buffered saline—DPBS) and the positive control (treated with sodium dodecyl sulphate—SDS) is used to predict skin irritation potential.
The reconstructed human epidermis model consists of normal human-derived epidermal keratinocytes cultured to recreate a highly differentiated multilayered human epidermis. […]
The optical density of the extracted formazan is determined spectrophotometrically at a wavelength of 570 nm using the μQUANT BIO TEK Microplate Spectrophotometer. Relative cell viability is calculated for each tissue as % of the mean optical density of the negative control tissues.

[3] = In vitro soothing efficacy, cell viability by MTT after SLS; format: cell-based; settings: human; read-out: % mean cell viability (standard deviation)
Method: (§1) The assay assessed quantitatively the effects of the sample in protecting skin cells and in inhibiting the […] reaction caused by moderate irritating agents as sodium lauryl sulfate (SLS) by means of a multilayer in vitro skin cell model.
(§2) The inhibition of the SLS-induced release of IL-1α cytokine was investigated (through specific ELISA assay) following exposure to the tested substance and respect to skin untreated samples. Cell viability was determined by the MTT assay.
(§3) Both assays used a reconstructed artificial human skin model comprising normal human epidermal keratinocytes, growing as an integrated three-dimensional cell culture model, perfectly mimicking the human skin in vitro. […] The model was supplied by Episkin (Lion, Batch 20-RHE-041).
Epidermis was treated for 70 minutes with SLS at 0.30% in order to induce IL-1α synthesis and release. […] As negative control, two epidermis units were treated with phosphate buffer, while epidermis units treated for 70 minutes with SLS 0.30% were used as positive control. […]
Epidermis units were treated with 1 mg/ml MTT solution (3-[4,5-dimethylthiazol-2-yl]-2,5-diphenyl tetrazolium bromide) for 3 h at 37° C. […] Two aliquots of every sample were transferred to a 96 well plate for the reading. The absorbance (OD) was read at the wavelength of 570 nm with a colorimeter (Tecan model Infinite F200) equipped with a microplate reader. […]

IL-1α [4] = experiment: In vitro soothing efficacy, SLS-induced IL-1α release by ELISA; format: cell-based, human; settings: SLS 0.30% for 70 minutes, then CBD-S5 diluted at 2%, positive control = SLS only
Method: as §1, §2, §3
Epidermis was treated for 70 minutes with SLS at 0.30% in order to induce IL-1α synthesis and release. […] As negative control, two epidermis units were treated with phosphate buffer, while epidermis units treated for 70 minutes with SLS 0.30% were used as positive control. Test was carried out in two replicates.
For IL-1α assay, the culture medium has been collected at 6 and 24 hours. […] IL-1α was determined in the medium culture of treated and not treated epidermis, using a direct ELISA test (Enzyme-linked immunosorbent assay). […] Samples were read at 450 nm. […]
Cytokine concentration was determined using a standard curve. […]

[5] = test system: human hair dermal papilla cells (HHDPCs); experiment: Mitogenesis in hair bulb cells, cell viability by MTT after starving; format: cell-based; settings: positive control (human insulin), % of negative control
Method: (§4) The test is carried out on human hair dermal papilla cells (HHDPCs) with fibroblast-like morphology. Cells are cultured in MEM containing 10% FBS and antibiotics.
(§5) Cells have been seeded in 24 wells plates and allowed to grow for 24 h at 37° C. and 5% CO2. Cells underwent starvation in serum-free medium for 6 hours before treatment.
(§6) The niosome dispersion was dissolved directly in the medium culture. The test was carried out in three replicates.
(§7) After 24- and 48-hours exposure the cell viability and the total cellular protein content were assessed on separate plates. Untreated cells were used as negative controls (NC); cells treated with human insulin were used as positive control (PC).
The cell viability was assessed by incubating the tissues for 2 hours with MTT (3-[4,5-dimethylthiazol-2-yl]-2,5-diphenyl tetrazolium bromide) solution. The precipitated formazan was then extracted using DMSO and quantified spectrophotometrically. The absorbance at 570 nm (OD570) was measured with a microplate reader (Tecan, Infinite 200 PRO), deducting background at 650 nm (OD650).
The cell viability was expressed in percentage terms according to the following formula: […]

[6] = test system: human hair dermal papilla cells (HHDPCs); experiment: Mitogenesis in hair bulb cells, total cellular protein content (Bradford); format: cell-based; settings: positive control (human insulin), % of negative control
Method: as §4, §5, §6, §7
The total cellular protein content was tested according to Bradford method. Cells at the end of the treatment were washed twice with PBS and lysed by treatment with purified water at 4° C. Dye reagent was added to each sample. […] Reading was made at 595 nm with a colorimeter equipped with a plate-reader.
To quantify proteins, a standard plot with albumin was designed and the sample concentrations were determined on the bases of their absorbance values using the interpolation plot formula. Mean values of every set of data were calculated, and for each sample the percentage of increase in the protein synthesis was determined by comparison with the negative control (NC) according to the following formula: […]

[7] = test system: transfected rat basophil cells (RBL-2H3 ATCC® CRL-2256™) expressing the IgE human receptor (FcRI); experiment: Anti-itch activity: basophil degranulation, β-hexosaminidase release; format: cell-based; settings: for % degranulation inhibition: basophils activated with anti-IgE receptor
Description: In vivo, a basophil cell degranulation mediated by IgE triggers an immediate allergic reaction characterized by the quick release of pre-stored inflammatory mediators (histamine, leukotrienes, thromboxane, basophilic enzymes, hexosaminidases), causing redness, rashes, itchiness and local inflammatory reactions. The ability of a composition to inhibit the degranulation of basophil cells is an indicator of its capability to inhibit the above described symptoms and above them mainly itching.
The test is carried out on a cell line of transfected rat basophil cells (RBL-2H3 ATCC® CRL-2256™) expressing the IgE human receptor (FcRI). Cells are kept in RPMI containing 10% FCS and 2 mM glutamine.
Untreated cells were used as negative control for the spontaneous degranulation.
A positive control consisting in cells exposed to anti-human IgE receptor antibodies was used to evaluate the maximal degranulation level.
Cell lysates in 1% Triton were also analyzed in order to evaluate the highest possible release of the analyzed molecules.
The release of β-hexosaminidase during degranulation was monitored on RBL-SX38 cell supernatant added with […]-N-acetyl-β-D-glucosamine (Sigma-Aldrich) in 0.1 M citrate buffer (pH 6.2) and incubated at 37° C. for 120 min. The reaction was terminated using 0.1M carbonate buffer (pH 10), and the absorbance was read at 405 nm (OD405).
The supernatant of untreated cells was used as negative control. The maximal stimulation of RBL-SX38 was evaluated on a 1% Triton X-100 lysate of the cell monolayer.
Sodium hyaluronate in serial dilutions, as indicated in the following Table 11, was also used as a control of the inhibition of basophil degranulation.
The inhibition degranulation percentage of activated basophil with IgE receptor has been calculated with the following formula: […]

CCCCCCCCCCCCOS(=O)(=O)[O-].[Na+] [PC, sodium dodecyl sulphate]
Mean IL-1α release (%) (IL-1α [1]): 235.35% | Mean relative viability (%) [2]: 2.16%

CCCCCCCCCCCCOS(=O)(=O)[O-].[Na+] [Positive control (PC), sodium lauryl sulfate]
viability at 70 min, 0.3 % [3]: 47.4%

Positive control: positive control of Example 10: cells treated with human insulin
IL-1α, 6 hours (IL-1α [4]; culture medium at 6 hours): 105.57 pg/mL | IL-1α, 24 hours (IL-1α [4]; culture medium at 24 hours): 597.32 pg/mL | % cell viability (ds) ([5]; 24 hours): 136.73% | % cell viability (ds) ([5]; 48 hours): 136.72 (8.16) % | % protein synthesis (ds) ([6]; 24 hours): 140.65% | % protein synthesis (ds) ([6]; 48 hours): 149.65 (10.83) %

Sodium hyaluronate [Hyaluronic acid (HA)]
OD405 ([7]; 1.25 mg/ml + positive control (anti-human IgE receptor)): 0.879 | OD405 ([7]; 1.25 mg/ml, sample alone (spontaneous degranulation)): 0.086 | % degranulation inhibition ([7]; 1.25 mg/ml): 15.7% | OD405 ([7]; 2.5 mg/ml + positive control (anti-human IgE receptor)): 0.690 | OD405 ([7]; 2.5 mg/ml, sample alone (spontaneous degranulation)): 0.084 | % degranulation inhibition ([7]; 2.5 mg/ml): 35.3% | OD405 ([7]; 5 mg/ml + positive control (anti-human IgE receptor)): 0.527 | OD405 ([7]; 5 mg/ml, sample alone (spontaneous degranulation)): 0.077 | % degranulation inhibition ([7]; 5 mg/ml): 52.3% | OD405 ([7]; 10 mg/ml + positive control (anti-human IgE receptor)): 0.255 | OD405 ([7]; 10 mg/ml, sample alone (spontaneous degranulation)): 0.065 | % degranulation inhibition ([7]; 10 mg/ml): 80.6%

Triton X-100
OD405 ([7]; controls: maximal degranulation by anti-human IgE receptor antibodies, 1% Triton X-100 lysate, negative control 0.068): 1.852
